Laboratory results: paper PMC12197453 (Viruses, 2025)

Columns and labels:
[1] = system: JEV-GFP replicon; experiment: Inhibition of JEV-GFP replicon replication in transfected BHK-21 cells; format: cell-based, Japanese encephalitis virus; details: 48 h, BHK-21 transfectants; for NS1 gene expression of the JEV-GFP replicon (library screening): screen of 20 bioactive compounds, qRT-PCR
[2] = system: rJEV-EGFP; experiment: Inhibition of rJEV-EGFP replication in BHK-21 cells (green fluorescence); format: cell-based, Japanese encephalitis virus; details: 10 μM, 48 h post-treatment, vs DMSO
[3] = system: 293T cells; experiment: Cytotoxicity (Cell Counting Kit-8) in 293T cells; format: cell-based; details: 10 μM, 48 h
[4] = system: A549 cells; experiment: Cytotoxicity assay (Cell Counting Kit-8) in A549 cells; format: cell-based; details: 48 h; for cytotoxicity (cell viability): 10 μM; for CC50: Cell Counting Kit-8, read-out: CC50 (50% cytotoxic concentration)
[5] = system: rJEV-EGFP; experiment: Inhibition of rJEV-EGFP replication in 293T cells (green fluorescence); format: cell-based, Japanese encephalitis virus; details: 10 μM, 48 h post-treatment, vs DMSO
[6] = system: rJEV-EGFP; experiment: Inhibition of rJEV-EGFP replication in A549 cells; format: cell-based, Japanese encephalitis virus; details: for intensities of green fluorescence produced by rJEV-EGFP replication: 10 μM, vs DMSO; for intensities of green fluorescence produced by rJEV-EGFP replication / levels of the JEV NS1 gene (qRT-PCR): 48 h post-treatment, A549 cells; for SI (Selectivity Index): SI = CC50/EC50, A549 cells; for levels of the JEV NS1 gene (qRT-PCR): different concentrations
[7] = system: BHK-21 cells; experiment: Cytotoxicity (Cell Counting Kit-8) in BHK-21 cells; format: cell-based; details: 10 μM, 48 h
[8] = Cytotoxicity assay (Cell Counting Kit-8) in A549 cells; format: cell-based; details: human, Cell Counting Kit-8, read-out: CC50 (50% cytotoxic concentration)

Structure (SMILES) | intensity of green fluorescence of JEV-GFP replicon ([1]; 10 μM, vs DMSO) | levels of the NS1 gene of JEV-GFP replicon (qRT-PCR) ([1]; 10 μM, vs DMSO) | NS1 gene expression of the JEV-GFP replicon (library screening) [1] | intensities of green fluorescence produced by rJEV-EGFP replication [2] | cytotoxicity (cell viability) [3] | cytotoxicity (cell viability) [4] | CC50 [4] [µM] | intensities of green fluorescence produced by rJEV-EGFP replication [5] | intensities of green fluorescence produced by rJEV-EGFP replication [6] | SI (Selectivity Index) [6] | levels of the JEV NS1 gene (qRT-PCR) [6] | cytotoxicity (cell viability) [7] | CC50 at 48 h [8] [µM] | SI (Selectivity Index) ([6]; listed as quinine)
COc1cc(NC(C(=O)N2CCc3ccc(OC(F)(F)F)cc32)c2ccc(Cl)cc2)cc(OCCCC(=O)O)c1 (stereo not shown) [JNJ-A07] | significantly reduced | reduced | higher inhibitory effect | remarkably reduced | no significant cytotoxicities | no significant cytotoxicities | 29.9 | remarkably reduced | remarkably reduced | 2296.92 | significantly decreased | no significant cytotoxicities |  | 
C#C[C@@]1(O)[C@H](O)[C@@H](CO)O[C@H]1n1ccc2c(N)ncnc21 [NITD008] |  | reduced | higher inhibitory effect | remarkably reduced | no significant cytotoxicities | no significant cytotoxicities | 37.8 | remarkably reduced | remarkably reduced |  | significantly decreased | no significant cytotoxicities |  | 
C=C[C@H]1C[N@@]2CC[C@H]1C[C@H]2[C@H](O)c1ccnc2ccc(OC)cc12 [Quinine] |  | reduced | higher inhibitory effect | remarkably reduced | no significant cytotoxicities | no significant cytotoxicities |  | remarkably reduced | remarkably reduced | 282.47 | significantly decreased | no significant cytotoxicities | 45.8 | 334.16
